Test results published in patent US20230242499A1, “COMPOUND OR SALT THEREOF, COMPOSITION, CHEMILU[…], METHOD FOR MEASURING CHEMILU[…], REAGENT, REAGENT KIT, AND METHOD FOR ASSAYING ANALYTE” (SYSMEX CORPORATION, priority 2022, published 2023).

Columns and labels:
alkaline phosphatase = test: Test Example 2: chemiluminescence intensity versus amount of alkaline phosphatase, limit of detection; assay type: biochemical; conditions: 42° C., 5 minutes incubation
Experimental: A solution of 1,2-dioxetane derivative (Examples 1 to 4) in dimethyl sulfoxide was added to 155 μL of the reaction liquid, and the mixture was kept at 42° C. for one hour. Twenty μL of a solution containing alkaline phosphatase was added, the mixture was incubated at 42° C. for 5 minutes, and then the chemiluminescence intensity was measured. The reaction liquid used herein was a 2: 1 mixture of a buffer solution (pH 9.6) that contains magnesium chloride and Sapphire-II™ Enhancer (from Thermo Fischer Scientific Inc.), and HISCL R4 reagent (from Sysmex Corporation). In Example 3, two types of sample were prepared, a sample (S(+)) with Sapphire-II™ Enhancer added thereto, and a sample […] without such additive.

[1] = Test Example 3: maximum emission wavelength by spectrofluorometer; assay type: physicochemical; conditions: after several hours under the conditions of Test Example 1; spectrofluorometer F-7000
Experimental: After a lapse of several hours under the conditions of Test Example 1, the samples were measured with use of a spectrofluorometer F-7000 (from Hitachi High-Tech Science Corporation), to find maximum emission wavelength.

[2] = buffer pH 9.6 with magnesium chloride and Sapphire-II Enhancer added (S (+)), HISCL R4 reagent

In the case of COC1(c2ccc(-c3ccc(C(=O)O)cc3)c(OP(=O)(O)O)c2)OOC12C1CC3CC2CC(Cl)(C3)C1 (stereo not drawn) [Example 4], the “LOD (zmol)” value (alkaline phosphatase; [2]) is reported as 100 zmol and the “Maximum emission wavelength (nm)” value [1] is reported as 493 nm.
With COC1(c2ccc(C#CC(=O)O)c(OP(=O)(O)O)c2)OOC12C1CC3CC2CC(Cl)(C3)C1 (stereo not drawn) [Example 3] the “LOD (zmol)” value (alkaline phosphatase; Sapphire-II Enhancer not added (S (−))) was 1 zmol, the “LOD (zmol)” value (alkaline phosphatase; [2]) was 7 zmol and the “Maximum emission wavelength (nm)” value [1] was 475 nm.
In the case of COC1(c2ccc(C#Cc3ccc(C(=O)O)cc3)c(OP(=O)(O)O)c2)OOC12C1CC3CC2CC(Cl)(C3)C1 (stereo not drawn) [Example 1], the “LOD (zmol)” value (alkaline phosphatase; [2]) is reported as 10 zmol and the “Maximum emission wavelength (nm)” value [1] is reported as 498 nm.
With C#Cc1ccc(C2(OC)OOC23C2CC4CC3CC(Cl)(C4)C2)cc1OP(=O)(O)O (stereo not drawn) [Example 2] the “LOD (zmol)” value (alkaline phosphatase; [2]) was 4 zmol and the “Maximum emission wavelength (nm)” value [1] was 468 nm.
